Laboratory results reported in patent publication US20100273816A1, “Quinazoline Compounds” (priority 2007, published 2010).

Columns and labels:
human LXRα = target: T1, human LXRα (Homo sapiens, UniProt Q13133); assay: Ligand-binding test procedure for human LXRα (3H T0901317 tracer, flash plates); conditions: biotinylated hLXRα from E. coli extract, +4° C. over night, read-out: hLXRa binding assay Mean IC50
T1 construct: biotin (biotinylated); made in house; host or cells: E. coli (crude extract)
T1 sequence (Q13133 1-447): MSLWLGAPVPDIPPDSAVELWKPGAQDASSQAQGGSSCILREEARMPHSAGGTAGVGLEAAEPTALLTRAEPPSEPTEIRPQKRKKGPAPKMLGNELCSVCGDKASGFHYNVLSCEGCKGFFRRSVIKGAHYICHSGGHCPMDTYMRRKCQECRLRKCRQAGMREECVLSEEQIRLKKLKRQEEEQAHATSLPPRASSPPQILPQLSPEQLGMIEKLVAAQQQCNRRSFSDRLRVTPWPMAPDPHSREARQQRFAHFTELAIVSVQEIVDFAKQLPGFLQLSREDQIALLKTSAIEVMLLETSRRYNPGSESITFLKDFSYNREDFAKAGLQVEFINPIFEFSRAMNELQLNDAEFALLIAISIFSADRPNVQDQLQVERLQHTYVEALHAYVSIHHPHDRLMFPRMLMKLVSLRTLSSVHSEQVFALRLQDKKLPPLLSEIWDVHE
Description: II. Ligand-Binding Test Procedure for Human LXRα.
(§1) Buffer: 100 mM KCl, 100 mM TRIS (pH 7.4 at +4° C.), 8.6% glycerol, 0.1 mM PMSF*, 2 mM MTG*, 0.2% CHAPS (* not used in wash buffer)
Receptor source: E. coli extract from cells expressing biotinylated hLXRα. Extract was made in a similar buffer as above, but with 50 mM TRIS.
(§2) Washed streptavidin and coated flash plates with wash buffer.
(§3) Diluted receptor extract to give Bmax ˜4000 cpm and add to the wells.
(§4) Wrapped the plates in aluminum foil and stored them at +4° C. over night.
(§5) Made a dilution series in DMSO of the test ligands.
(§6) Made a 5 nM solution of the radioactive tracer in buffer.
Mixed 250 μl diluted tracer with 5 μl of the test ligand from each concentration of the dilution series.
(§7) Washed the receptor-coated flash plates.
(§8) Added 200 μl per well of the ligand/radiolabel mixture to the receptor-coated flash plates.
(§9) Wrapped the plates in aluminum foil and incubate at +4° C. over night.
(§10) Aspirated wells, and wash the flashed plates. Sealed the plate.
(§11) Measured the remaining radioactivity in the plate.

human LXRβ = target: T2, human LXRβ (Homo sapiens, UniProt P55055); assay: Ligand-binding test procedure for human LXRβ (3H T0901317 tracer, flash plates); conditions: biotinylated hLXRβ from E. coli extract, +4° C. over night, read-out: hLXRB binding assay Mean IC50
T2 construct: biotin (biotinylated); made in house; host or cells: E. coli (crude extract)
T2 sequence (P55055 1-460): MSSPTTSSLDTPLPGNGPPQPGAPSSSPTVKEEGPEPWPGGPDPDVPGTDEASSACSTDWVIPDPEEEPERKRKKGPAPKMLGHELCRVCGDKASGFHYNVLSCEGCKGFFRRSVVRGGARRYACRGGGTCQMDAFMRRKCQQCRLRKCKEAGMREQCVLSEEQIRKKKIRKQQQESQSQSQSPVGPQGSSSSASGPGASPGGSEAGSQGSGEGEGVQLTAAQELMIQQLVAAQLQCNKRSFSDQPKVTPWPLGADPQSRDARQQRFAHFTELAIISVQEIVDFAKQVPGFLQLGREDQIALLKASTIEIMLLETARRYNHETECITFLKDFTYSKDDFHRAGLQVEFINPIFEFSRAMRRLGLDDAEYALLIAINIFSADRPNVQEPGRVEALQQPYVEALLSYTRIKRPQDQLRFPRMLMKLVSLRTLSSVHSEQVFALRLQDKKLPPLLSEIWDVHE
Description: I. Ligand-Binding Test Procedure for Human LXRβ.
as §1
Receptor source: E. coli extract from cells expressing biotinylated hLXRβ. Extract was made in a similar buffer as above, but with 50 mM TRIS.
as §2, §3, §4, §5, §6
Mixed 250 μl diluted tracer with 50 of the test ligand from each concentration of the dilution series.
as §7, §8, §9, §10, §11

CS(=O)(=O)c1cccc(Oc2cccc(-c3ncnc4c(C(F)(F)F)cccc34)c2)c1 [Example 4, 4-{3-[3-(Methylsulfonyl)phenoxy]phenyl}-8-(trifluoromethyl)quinazoline]
IC50 (human LXRα): 1820 nM | IC50 (human LXRβ): 151 nM

CCS(=O)(=O)c1cccc(Oc2cccc(-c3ncnc4c(C(F)(F)F)cccc34)c2)c1 [Example 5, 4-{3-[3-(ethylsulfonyl)phenoxy]phenyl}-8-(trifluoromethyl)quinazoline]
IC50 (human LXRα): 1570 nM | IC50 (human LXRβ): 101 nM

CC(C)S(=O)(=O)c1cccc(Oc2cccc(-c3ncnc4c(C(F)(F)F)cccc34)c2)c1 [Example 6, 4-{3-[3-(isopropylsulfonyl)phenoxy]phenyl}-8-(trifluoromethyl)quinazoline]
IC50 (human LXRα): 1020 nM | IC50 (human LXRβ): 63 nM

COCCCS(=O)(=O)c1cccc(Oc2cccc(-c3ncnc4c(C(F)(F)F)cccc34)c2)c1 [Example 7, 4-(3-{3-[(3-methoxypropyl)sulfonyl]phenoxy}phenyl)-8-(trifluoromethyl)quinazoline]
IC50 (human LXRα): 4990 nM | IC50 (human LXRβ): 651 nM

CCCS(=O)(=O)c1cc(Cl)cc(Oc2cccc(-c3ncnc4c(C(F)(F)F)cccc34)c2)c1 [Example 8, 4-{3-[3-chloro-5-(propylsulfonyl)phenoxy]phenyl}-8-(trifluoromethyl)quinazoline]
IC50 (human LXRα): > 1000 nM | IC50 (human LXRβ): > 1000 nM

O=S(=O)(CCCO)c1cc(Cl)cc(Oc2cccc(-c3ncnc4c(C(F)(F)F)cccc34)c2)c1 [Example 9, 3-[(3-chloro-5-{3-[8-(trifluoromethyl)quinazolin-4-yl]phenoxy}phenyl)sulfonyl]propan-1-ol]
IC50 (human LXRα): > 1000 nM

CS(=O)(=O)c1ccc(Oc2cccc(-c3ncnc4c(C(F)(F)F)cccc34)c2)cc1 [Example 10, 4-{3-[4-(methylsulfonyl)phenoxy]phenyl}-8-(trifluoromethyl)quinazoline]
IC50 (human LXRα): 26100 nM | IC50 (human LXRβ): 3620 nM

CCS(=O)(=O)c1ccc(Oc2cccc(-c3ncnc4c(C(F)(F)F)cccc34)c2)cc1 [Example 11, 4-{3-[4-(ethylsulfonyl)phenoxy]phenyl}-8-(trifluoromethyl)quinazoline]
IC50 (human LXRα): > 1000 nM | IC50 (human LXRβ): 2240 nM

CCCS(=O)(=O)c1ccc(Oc2cccc(-c3ncnc4c(C(F)(F)F)cccc34)c2)cc1 [Example 12, 4-{3-[4-(propylsulfonyl)phenoxy]phenyl}-8-(trifluoromethyl)quinazoline]
IC50 (human LXRα): > 1000 nM | IC50 (human LXRβ): > 1000 nM

CC(C)S(=O)(=O)c1ccc(Oc2cccc(-c3ncnc4c(C(F)(F)F)cccc34)c2)cc1 [Example 13, 4-{3-[4-(isopropylsulfonyl)phenoxy]phenyl}-8-(trifluoromethyl)quinazoline]
IC50 (human LXRα): > 1000 nM | IC50 (human LXRβ): 1540 nM

CCCS(=O)(=O)c1cccc(Oc2cccc(-c3ncnc4c(C(F)(F)F)cccc34)c2)c1 [Example 15, 4-{3-[3-(propylsulfonyl)phenoxy]phenyl}-8-(trifluoromethyl)quinazoline]
IC50 (human LXRα): 4420 nM | IC50 (human LXRβ): 449 nM

CC(C)CS(=O)(=O)c1cccc(Oc2cccc(-c3ncnc4c(C(F)(F)F)cccc34)c2)c1 [Example 16, 4-{3-[3-(isobutylsulfonyl)phenoxy]phenyl}-8-(trifluoromethyl)quinazoline]
IC50 (human LXRα): > 1000 nM | IC50 (human LXRβ): > 1000 nM

CC(C)CCS(=O)(=O)c1cccc(Oc2cccc(-c3ncnc4c(C(F)(F)F)cccc34)c2)c1 [Example 17, 4-(3-{3-[(3-methylbutyl)sulfonyl]phenoxy}phenyl)-8-(trifluoromethyl)quinazoline]
IC50 (human LXRα): > 1000 nM | IC50 (human LXRβ): > 1000 nM

O=S(=O)(CCCO)c1cccc(Oc2cccc(-c3ncnc4c(C(F)(F)F)cccc34)c2)c1 [Example 18, 3-[(3-{3-[8-(trifluoromethyl)quinazolin-4-yl]phenoxy}phenyl)sulfonyl]propan-1-ol]
IC50 (human LXRα): 3540 nM | IC50 (human LXRβ): 412 nM

Cc1nc(-c2cccc(-c3ccc(S(C)(=O)=O)cc3)c2)c2cccc(C(F)(F)F)c2n1 [Example 38, 4-(4′-Methanesulfonyl-biphenyl-3-0)-2-methyl-8-trifluoromethyl-quinazoline]
IC50 (human LXRβ): 6270 nM
